{"source": "paper PMC11787452", "about": "“Substrate and inhibitor specificity of Plasmodium nucleoside transporters ENT1 orthologs” (The Journal of Biological Chemistry, 2024)", "key": {"[1]": {"molecular_target": "T1, PbENT1 (Plasmodium berghei, UniProt A0A509AYF4)", "T1 construct": "10xHis (N); made in house; host or cells: Sf9 insect cells (baculovirus)", "T1 sequence (A0A509AYF4 1-412)": "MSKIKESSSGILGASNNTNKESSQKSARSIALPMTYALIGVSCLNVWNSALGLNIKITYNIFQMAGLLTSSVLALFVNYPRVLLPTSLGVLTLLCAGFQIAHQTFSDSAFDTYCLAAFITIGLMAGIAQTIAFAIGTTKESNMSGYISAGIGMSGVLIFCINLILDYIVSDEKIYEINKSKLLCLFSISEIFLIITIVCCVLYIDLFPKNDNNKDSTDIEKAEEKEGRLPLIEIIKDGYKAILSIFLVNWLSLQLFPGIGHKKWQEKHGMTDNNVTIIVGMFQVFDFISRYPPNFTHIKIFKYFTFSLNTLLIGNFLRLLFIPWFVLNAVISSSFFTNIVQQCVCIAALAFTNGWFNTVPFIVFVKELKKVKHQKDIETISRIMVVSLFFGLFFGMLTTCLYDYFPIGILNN", "assay": "ITC binding to PbENT1", "conditions": "for Kd: 25 °C, 25 mM MES pH 6.0, 150 mM NaCl, 0.05% DDM, read-out: Kd (binding affinity for PbENT1)", "description": "(§1) All the constructs were subcloned and inserted into a modified pFastBac with an N-terminal 10 × His tag. The baculovirus was generated in DH10Bac for recombinant protein expression. After 72 h of infection, Sf9 insect cells were harvested. For structural determination of the PfENT1 protein, Sf9 cells were solubilized in buffer containing 25 mM MES (pH 6.0), 150 mM NaCl, 2% (w/v) n-dodecyl-β-D-maltopyranoside (DDM), and protease inhibitor cocktail (0.8 μM aprotinin, 2 μM pepstatin, and 5 μg/ml leupeptin) at 4 °C for 2 h. After centrifugation at 18,000 rpm for 45 min at 4 °C, the detergent-soluble supernatant was collected via centrifugation at 4 °C for 60 min and incubated with Ni-NTA resin (QIAGEN) at 4 °C for 20 min. The resin was further washed with 25 mM MES pH 6.0, 150 mM NaCl, 10 mM imidazole, and 0.05% (w/v) DDM and eluted with buffer containing 25 mM MES pH 6.0, 150 mM NaCl, 300 mM imidazole, and 0.05% (w/v) DDM. The protein was further purified via size-exclusion chromatography (Superdex 200 Increase 10/300; GE Healthcare) in buffer containing 25 mM MES (pH 6.0), 150 mM NaCl, and 0.05% (w/v) DDM. The peak fractions were pooled and concentrated to 10∼50 μM for the nucleoside-binding assay. The protein purification of the bacterial nucleoside transporter NupG was performed as described in previous studies ([35]).\n(§2) […] binding to ENTs was measured at 25 °C via a MicroCal PEAQ-ITC. The purified ENT protein was concentrated to 25 to 50 μM for ITC experiments. The nucleoside was diluted to 5 mM via the same buffer employed for protein purification, which consisted of 25 mM MES (pH 6.0), 150 mM NaCl, and 0.05% DDM. The inhibitor was diluted to 250 μM via the same buffer employed for protein purification, which consisted of 25 mM MES (pH 6.0), 150 mM NaCl, and 0.05% DDM. All the titrations were repeated three times."}, "[2]": {"molecular_target": "T2, PfENT1 (Plasmodium falciparum, UniProt Q8IDM6)", "T2 construct": "10xHis (N); made in house; host or cells: Sf9 insect cells (baculovirus)", "assay": "ITC binding to PfENT1", "conditions": "for Kd: 25 °C, 25 mM MES pH 6.0, 150 mM NaCl, 0.05% DDM", "description": "as §1, §2"}, "[3]": {"molecular_target": "T3, PvENT1 (Plasmodium vivax, UniProt A5K8B0)", "T3 construct": "10xHis (N); made in house; host or cells: Sf9 insect cells (baculovirus)", "T3 sequence (A5K8B0 1-416)": "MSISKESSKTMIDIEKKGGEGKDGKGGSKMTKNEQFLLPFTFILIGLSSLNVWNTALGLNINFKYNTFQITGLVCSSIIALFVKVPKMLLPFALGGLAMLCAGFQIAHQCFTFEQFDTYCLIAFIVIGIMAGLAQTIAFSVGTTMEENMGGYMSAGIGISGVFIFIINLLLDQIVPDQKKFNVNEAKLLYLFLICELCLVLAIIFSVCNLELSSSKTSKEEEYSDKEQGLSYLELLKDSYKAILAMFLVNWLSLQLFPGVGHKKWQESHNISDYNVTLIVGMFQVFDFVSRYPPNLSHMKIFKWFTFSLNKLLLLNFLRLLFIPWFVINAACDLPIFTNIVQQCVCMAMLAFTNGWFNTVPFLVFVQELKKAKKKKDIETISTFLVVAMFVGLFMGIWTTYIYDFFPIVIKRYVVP", "assay": "ITC binding to PvENT1", "conditions": "for Kd: 25 °C, 25 mM MES pH 6.0, 150 mM NaCl, 0.05% DDM, read-out: Kd (binding affinity for PvENT1)", "description": "as §1, §2"}, "[4]": {"molecular_target": "T2, PfENT1", "design": "method as in PMID 36977719", "conditions": "competition assay; cited from earlier work"}, "[5]": {"molecular_target": "T4, PbENT1C43S (Plasmodium berghei, UniProt A0A509AYF4, C43S)", "T4 construct": "10xHis (N); made in house; host or cells: Sf9 insect cells (baculovirus)", "T4 sequence (A0A509AYF4 whole entry C43S)": "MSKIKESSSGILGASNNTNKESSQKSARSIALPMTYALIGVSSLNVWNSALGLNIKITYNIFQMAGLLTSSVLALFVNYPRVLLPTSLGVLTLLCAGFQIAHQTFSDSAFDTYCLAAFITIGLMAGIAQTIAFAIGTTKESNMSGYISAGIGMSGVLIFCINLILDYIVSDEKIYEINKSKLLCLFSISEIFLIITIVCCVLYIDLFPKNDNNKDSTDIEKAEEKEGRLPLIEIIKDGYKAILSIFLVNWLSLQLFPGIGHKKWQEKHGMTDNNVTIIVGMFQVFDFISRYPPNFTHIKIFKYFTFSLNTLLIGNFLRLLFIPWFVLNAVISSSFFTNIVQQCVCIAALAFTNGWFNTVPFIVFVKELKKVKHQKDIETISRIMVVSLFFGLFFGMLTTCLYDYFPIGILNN", "assay": "ITC binding to PbENT1C43S", "description": "as §1, §2"}, "[6]": {"molecular_target": "T5, PfENT1S49C (Plasmodium falciparum, UniProt Q8IDM6, S49C)", "T5 construct": "10xHis (N); made in house; host or cells: Sf9 insect cells (baculovirus)", "T5 sequence (Q8IDM6 whole entry S49C)": "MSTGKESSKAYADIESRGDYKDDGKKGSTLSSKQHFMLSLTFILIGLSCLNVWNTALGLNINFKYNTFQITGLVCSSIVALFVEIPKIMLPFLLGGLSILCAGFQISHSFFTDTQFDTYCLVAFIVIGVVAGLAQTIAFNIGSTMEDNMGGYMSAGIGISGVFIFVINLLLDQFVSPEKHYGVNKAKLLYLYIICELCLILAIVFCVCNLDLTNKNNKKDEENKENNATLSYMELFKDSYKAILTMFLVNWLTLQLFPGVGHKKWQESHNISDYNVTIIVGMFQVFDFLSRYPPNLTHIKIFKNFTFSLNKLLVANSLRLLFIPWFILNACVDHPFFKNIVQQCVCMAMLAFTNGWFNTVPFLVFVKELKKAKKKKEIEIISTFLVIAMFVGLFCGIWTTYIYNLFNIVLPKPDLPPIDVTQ", "assay": "ITC binding to PfENT1S49C", "description": "as §1, with “The protein purification of the bacterial nucleoside transporter NupG was performed as described in previous studies ([35]).” left out\n(§3) […] binding to ENTs was measured at 25 °C via a MicroCal PEAQ-ITC. […]"}, "[7]": {"molecular_target": "T6, PbENT1M64I (Plasmodium berghei, UniProt A0A509AYF4, M64I)", "T6 construct": "10xHis (N); made in house; host or cells: Sf9 insect cells (baculovirus)", "T6 sequence (A0A509AYF4 whole entry M64I)": "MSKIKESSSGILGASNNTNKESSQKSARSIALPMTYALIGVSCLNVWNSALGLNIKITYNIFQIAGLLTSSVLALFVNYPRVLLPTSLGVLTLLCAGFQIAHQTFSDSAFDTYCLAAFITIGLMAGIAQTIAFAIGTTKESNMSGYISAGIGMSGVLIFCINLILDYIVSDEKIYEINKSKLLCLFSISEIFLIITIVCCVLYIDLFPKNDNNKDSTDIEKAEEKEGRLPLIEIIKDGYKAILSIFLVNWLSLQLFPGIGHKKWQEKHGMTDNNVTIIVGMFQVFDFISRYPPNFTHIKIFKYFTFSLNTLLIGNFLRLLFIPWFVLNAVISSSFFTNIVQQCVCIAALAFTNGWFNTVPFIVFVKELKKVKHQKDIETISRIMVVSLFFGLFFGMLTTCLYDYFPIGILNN", "assay": "ITC binding to PbENT1M64I", "description": "as §1, with “The protein purification of the bacterial nucleoside transporter NupG was performed as described in previous studies ([35]).” left out\nas §3"}, "[8]": {"molecular_target": "T7, PfENT1I70M (Plasmodium falciparum, UniProt Q8IDM6, I70M)", "T7 construct": "10xHis (N); made in house; host or cells: Sf9 insect cells (baculovirus)", "T7 sequence (Q8IDM6 1-422 I70M)": "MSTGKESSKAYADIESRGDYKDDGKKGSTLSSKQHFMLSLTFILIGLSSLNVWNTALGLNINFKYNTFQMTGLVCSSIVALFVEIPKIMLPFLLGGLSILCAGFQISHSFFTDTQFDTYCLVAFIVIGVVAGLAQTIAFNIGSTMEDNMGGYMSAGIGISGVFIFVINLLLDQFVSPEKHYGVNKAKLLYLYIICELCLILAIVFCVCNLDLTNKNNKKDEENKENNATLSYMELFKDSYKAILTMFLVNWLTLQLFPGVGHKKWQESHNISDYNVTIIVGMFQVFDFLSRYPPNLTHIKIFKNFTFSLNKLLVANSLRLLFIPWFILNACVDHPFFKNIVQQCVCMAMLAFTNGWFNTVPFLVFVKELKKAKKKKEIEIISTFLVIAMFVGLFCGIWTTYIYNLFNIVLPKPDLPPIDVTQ", "assay": "ITC binding to PfENT1I70M", "description": "as §1, with “The protein purification of the bacterial nucleoside transporter NupG was performed as described in previous studies ([35]).” left out\nas §3"}, "[9]": {"conditions": "read-out: Kd (binding affinity for PfENT1)"}}, "note": "“And” between values parts separate entries of the source, which are not always exact repeats. Equal values may be shown once. Read-outs that look alike come from different tables or passages of the source.", "data": [{"smiles": "Nc1nc2c(ncn2[C@@H]2O[C@H](CO)[C@@H](O)[C@H]2O)c(=O)[nH]1", "note": "[guanosine]", "values": [{"measurement": "Kd", "setting": "[1]", "result": "15.6 µM and 8.69 µM and 11.3 µM"}, {"measurement": "Kd", "setting": "[2]; Kd (binding affinity for PfENT1)", "result": "~179", "unit": "µM"}, {"measurement": "Kd", "setting": "[3]", "result": "~49.3 µM and 49.3 µM and 50.5 µM and 46.3 µM"}]}, {"smiles": "Nc1ncnc2c1ncn2[C@@H]1O[C@H](CO)[C@@H](O)[C@H]1O", "note": "[adenosine]", "values": [{"measurement": "Kd", "setting": "[1]", "result": "38.1 µM and 36.6 µM and 40.5 µM"}, {"measurement": "inhibition of the inosine transport activity of PfENT1", "setting": "[4]", "result": "effectively inhibited"}, {"measurement": "binding to PbENT1C43S (in words)", "setting": "[5]", "result": "did not show detectable adenosine binding"}, {"measurement": "thermodynamic pattern of binding to PfENT1S49C", "setting": "[6]", "result": "enthalpy-driven"}]}, {"smiles": "O=c1ccn([C@@H]2O[C@H](CO)[C@@H](O)[C@H]2O)c(=O)[nH]1", "note": "[uridine]", "values": [{"measurement": "binding affinity for PbENT1 (in words)", "setting": "[1]", "result": "No binding affinity was detected"}]}, {"smiles": "Cc1oc(-c2ccccc2Cl)nc1C(=O)NCCN1CCCCCC1=O", "note": "[GSK4-2]", "values": [{"measurement": "decrease in binding affinity for PfENT1 (versus GSK4)", "setting": "[2]", "result": 1.6, "unit": "fold"}]}, {"smiles": "O=c1[nH]cnc2c1ncn2[C@@H]1O[C@H](CO)[C@@H](O)[C@H]1O", "note": "[inosine]", "values": [{"measurement": "thermodynamic pattern of binding to PbENT1", "setting": "[1]", "result": "enthalpy-driven"}, {"measurement": "ΔH of binding to PbENT1", "setting": "[1]; exothermic reaction", "result": "< 0"}, {"measurement": "binding affinity of PbENT1M64I relative to WT PbENT1", "setting": "[7]", "result": "fivefold lower"}, {"measurement": "thermodynamic pattern of binding to PfENT1", "setting": "[2]", "result": "entropy-driven"}, {"measurement": "Kd", "setting": "[2]; [9]", "result": 77.3, "unit": "µM"}, {"measurement": "ΔH of binding to PfENT1", "setting": "[2]; endothermic reaction", "result": "> 0"}, {"measurement": "thermodynamic pattern of binding to PvENT1", "setting": "[3]", "result": "enthalpy-entropy compensation"}, {"measurement": "ΔH of binding to PvENT1", "setting": "[3]; exothermic reaction", "result": "< 0"}, {"measurement": "binding affinity of PbENT1C43S relative to WT PbENT1", "setting": "[5]", "result": "fivefold lower"}, {"measurement": "affinity for PfENT1I70M (in words)", "setting": "[8]; compared with PfENT1", "result": "comparable affinity"}, {"measurement": "binding to PfENT1S49C (in words)", "setting": "[6]", "result": "complete abolishment"}]}, {"smiles": "OC[C@H]1O[C@@H](n2cnc3c(O)ncnc32)[C@H](O)[C@@H]1O", "note": "[inosine]", "values": [{"measurement": "Kd", "setting": "[1]", "result": "13.6 µM and 6.11 µM and 13.5 µM"}, {"measurement": "Kd", "setting": "[7]; Kd (binding to PbENT1M64I), 25 °C, pH 6.0", "result": "61.6 µM and 53.5 µM and 58.9 µM"}, {"measurement": "Kd", "setting": "[2]; [9]", "result": "~64.2", "unit": "µM"}, {"measurement": "Kd", "setting": "[3]", "result": "~146 µM and 146 µM and 161 µM and 173 µM"}, {"measurement": "Kd", "setting": "[5]; Kd (binding to PbENT1C43S), 25 °C, pH 6.0", "result": "51.4 µM and 55.9 µM and 58.4 µM"}, {"measurement": "Kd", "setting": "[8]; 25 °C, pH 6.0", "result": "58.3 µM and 78.5 µM and 65.3 µM"}]}]}
